What is called MIC is the smallest concentration in the dilution series that meets the test's criterion for growth inhibition. A higher MIC goes with weaker potency. What is called logD is lipophilicity at a set pH, counting ionised and neutral species. In general, IC50 refers to the concentration needed to halve the response being measured. A lower IC50 goes with greater potency in that assay. A word on the fraction unbound: it is the share of the substance not bound to proteins or other matrix. High values mean much free substance, low ones little free substance.

In brackets after ≈: the same amount, converted by molar mass. Activity calls are given as the source filed them.

Consider 13 compounds from ChEMBL document CHEMBL3286119, “Biarylmethoxy Nicotinamides As Novel and Specific Inhibitors of Mycobacterium tuberculosis” (ACS Med Chem Lett, 2014).

For series [1], the system named is Mycobacterium tuberculosis. The experiment in a line: Antimicrobial activity against Mycobacterium tuberculosis H37Rv ATCC 27294 after 5 days by microdilution method. The following applies: H37Rv ATCC 27294, 120 h. Format: functional. A general note: In broth dilution the organism is exposed to a series of concentrations in liquid medium.
The nature of series [2]: Cytotoxicity against human THP1 cells after 24 hrs by resazurin assay. Format: cell-based, THP-1. The following applies: read-out: MIC. Background: Resazurin is reduced to fluorescent resorufin, in cell work by metabolically active cells.
The subject of the next series is Streptococcus pneumoniae. Kind of series: Antimicrobial activity against Streptococcus pneumoniae ARC548 after 5 days by microdilution method. Format: functional. The conditions noted are these: ARC548, 120 h.
Series [3] concerns Pseudomonas aeruginosa. The experiment in a line: Antimicrobial activity against Pseudomonas aeruginosa ARC546 after 5 days by microdilution method. The conditions noted are these: ARC546, 120 h. Format: functional.
In the next series the test system is Klebsiella pneumoniae. The experiment in a line: Antimicrobial activity against Klebsiella pneumoniae ARC1865 after 5 days by microdilution method. The class given is functional. The conditions noted are these: ARC1865, 120 h.
The next series has as its system Streptococcus pyogenes. Kind of series: Antimicrobial activity against Streptococcus pyogenes after 5 days by microdilution method. The class given is functional. The following applies: 120 h.
The subject of a further series is Candida albicans. Kind of series: Antimicrobial activity against Candida albicans ARC526 after 5 days by microdilution method. The class given is functional. The conditions noted are these: ARC526, 120 h.
Series [4] is described as follows: Lipophilicity, log D of the compound. The following applies: octanol/water. Format: physicochemical.
For a further series, the target named is Cytochrome P450 2C9 (Homo sapiens, UniProt P11712). Kind of series: Inhibition of CYP2C9 (unknown origin). Format: ADME.
Series [5] deals with Mycobacterium tuberculosis. Kind of series: Antimicrobial activity against Mycobacterium tuberculosis Erdman after 2 to 3 weeks. Format: functional, organism-based.
Series [6] relates to Mycobacterium tuberculosis. Kind of series: Antimicrobial activity against Mycobacterium tuberculosis ATCC 25618 after 2 to 3 weeks. The class given is functional, organism-based.
Series [7] concerns Mycobacterium tuberculosis. Kind of series: Antimicrobial activity against Mycobacterium tuberculosis ATCC 35811 after 2 to 3 weeks. Format: functional, organism-based.
Series [8] concerns Mycobacterium tuberculosis. The experiment in a line: Antimicrobial activity against Mycobacterium tuberculosis Beijing after 2 to 3 weeks. Format: functional, organism-based.
Series [9] relates to Mycobacterium tuberculosis. The experiment in a line: Antimicrobial activity against Mycobacterium tuberculosis Harlingen after 2 to 3 weeks. The class given is functional, organism-based.
The subject of series [10] is Mycobacterium tuberculosis. Kind of series: Antimicrobial activity against Mycobacterium tuberculosis DKU211 clinical isolate after 2 to 3 weeks. Format: functional, organism-based.
Series [11] concerns Mycobacterium tuberculosis. The experiment in a line: Antimicrobial activity against Mycobacterium tuberculosis DKU220 clinical isolate after 2 to 3 weeks. The class given is functional, organism-based.
For series [12], the system named is Mycobacterium tuberculosis. Kind of series: Antimicrobial activity against Mycobacterium tuberculosis DKU 76 clinical isolate after 2 to 3 weeks. The class given is functional, organism-based.
Series [13] concerns Mycobacterium tuberculosis. The experiment in a line: Antimicrobial activity against Mycobacterium tuberculosis 97A clinical isolate after 2 to 3 weeks. Format: functional, organism-based.
Series [14] relates to Mycobacterium tuberculosis. The experiment in a line: Antimicrobial activity against Mycobacterium tuberculosis JALMA clinical isolate after 2 to 3 weeks. The class given is functional, organism-based.
Series [15] relates to Mycobacterium tuberculosis. Kind of series: Antimicrobial activity against ofloxacin Mycobacterium tuberculosis 12119 after 2 to 3 weeks. The class given is functional, organism-based.
The nature of series [16]: Selectivity index, ratio of MIC for human THP1 cells to MIC for Mycobacterium tuberculosis H37Rv ATCC 27294. The class given is toxicity, cell-based, THP-1. The conditions noted are these: read-out: Selectivity Index.
Series [17] has as its system Pseudomonas aeruginosa. The experiment in a line: Antimicrobial activity against Pseudomonas aeruginosa ARC545 after 5 days by microdilution method. The class given is functional. The conditions noted are these: ARC545, 120 h.
Series [18] concerns Escherichia coli. Kind of series: Antimicrobial activity against Escherichia coli ARC523 after 5 days by microdilution method. The class given is functional. The following applies: ARC523, 120 h.
The test system of series [19] is Escherichia coli. Kind of series: Antimicrobial activity against Escherichia coli ARC524 after 5 days by microdilution method. The class given is functional. The following applies: ARC524, 120 h.
Series [20] concerns Haemophilus influenzae. Kind of series: Antimicrobial activity against Haemophilus influenzae ARC446 after 5 days by microdilution method. The class given is functional. The following applies: ARC446, 120 h.
In series [21] the test system is Haemophilus influenzae. The experiment in a line: Antimicrobial activity against Haemophilus influenzae ARC158 after 5 days by microdilution method. Format: functional. The following applies: ARC158, 120 h.
Another series relates to Staphylococcus aureus. The experiment in a line: Antimicrobial activity against Staphylococcus aureus ARC517 after 5 days by microdilution method. Format: functional. The following applies: ARC517, 120 h.
The nature of series [22]: Fraction unbound in human plasma. The class given is ADME, cell-free.
The next series addresses T1, Cytochrome P450 1A2 (Homo sapiens, UniProt P05177).
T1 sequence (P05177 whole entry): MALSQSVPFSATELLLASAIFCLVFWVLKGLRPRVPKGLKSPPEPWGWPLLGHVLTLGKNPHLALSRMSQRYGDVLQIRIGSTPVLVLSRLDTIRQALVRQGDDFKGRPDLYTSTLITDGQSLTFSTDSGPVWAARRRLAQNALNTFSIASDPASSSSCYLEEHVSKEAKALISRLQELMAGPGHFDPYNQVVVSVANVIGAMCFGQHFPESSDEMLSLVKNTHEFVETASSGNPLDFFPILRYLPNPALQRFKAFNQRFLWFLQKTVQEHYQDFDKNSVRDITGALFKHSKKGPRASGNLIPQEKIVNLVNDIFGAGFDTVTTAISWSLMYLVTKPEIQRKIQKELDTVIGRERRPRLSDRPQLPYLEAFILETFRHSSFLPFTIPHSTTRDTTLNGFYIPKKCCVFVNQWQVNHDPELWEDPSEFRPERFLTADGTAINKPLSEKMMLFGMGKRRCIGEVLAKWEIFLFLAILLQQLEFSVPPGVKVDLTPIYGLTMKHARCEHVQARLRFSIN
Kind of series: Inhibition of CYP1A2 (unknown origin). The class given is ADME.

In another series the target is Cytochrome P450 3A4 (Homo sapiens, UniProt P08684). The experiment in a line: Inhibition of CYP3A4 (unknown origin). Format: ADME.
The next series deals with Cytochrome P450 2D6 (Homo sapiens, UniProt P10635). The experiment in a line: Inhibition of CYP2D6 (unknown origin). The class given is ADME.
Cytochrome P450 2D6, sequence (P10635 whole entry): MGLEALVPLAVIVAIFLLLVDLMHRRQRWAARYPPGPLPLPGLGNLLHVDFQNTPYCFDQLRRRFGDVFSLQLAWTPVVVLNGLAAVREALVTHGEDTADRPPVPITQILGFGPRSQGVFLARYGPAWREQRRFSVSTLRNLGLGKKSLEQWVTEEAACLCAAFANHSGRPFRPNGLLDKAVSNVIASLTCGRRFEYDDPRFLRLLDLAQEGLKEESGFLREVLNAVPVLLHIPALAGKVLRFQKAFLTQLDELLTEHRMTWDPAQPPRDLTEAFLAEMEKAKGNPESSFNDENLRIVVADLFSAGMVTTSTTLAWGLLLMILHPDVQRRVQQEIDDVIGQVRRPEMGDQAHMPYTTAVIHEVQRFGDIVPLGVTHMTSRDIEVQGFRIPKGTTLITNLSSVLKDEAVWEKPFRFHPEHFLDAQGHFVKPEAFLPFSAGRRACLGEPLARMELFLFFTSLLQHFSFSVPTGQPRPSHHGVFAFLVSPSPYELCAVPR

Cytochrome P450 3A4, sequence (P08684 whole entry): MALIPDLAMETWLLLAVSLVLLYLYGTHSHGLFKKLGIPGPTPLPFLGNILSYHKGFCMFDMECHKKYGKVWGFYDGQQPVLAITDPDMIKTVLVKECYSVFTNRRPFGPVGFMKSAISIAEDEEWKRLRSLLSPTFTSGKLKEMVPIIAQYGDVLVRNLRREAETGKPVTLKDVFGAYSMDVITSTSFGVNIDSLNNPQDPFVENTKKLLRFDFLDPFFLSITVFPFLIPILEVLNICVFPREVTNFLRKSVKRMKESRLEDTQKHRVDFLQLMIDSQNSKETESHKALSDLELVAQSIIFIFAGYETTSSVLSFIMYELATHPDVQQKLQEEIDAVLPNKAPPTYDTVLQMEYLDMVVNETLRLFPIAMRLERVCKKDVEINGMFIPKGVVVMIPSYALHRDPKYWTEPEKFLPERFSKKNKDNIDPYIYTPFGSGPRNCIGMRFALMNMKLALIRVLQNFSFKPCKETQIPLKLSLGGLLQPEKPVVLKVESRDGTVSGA
Cytochrome P450 2C9, sequence (P11712 whole entry): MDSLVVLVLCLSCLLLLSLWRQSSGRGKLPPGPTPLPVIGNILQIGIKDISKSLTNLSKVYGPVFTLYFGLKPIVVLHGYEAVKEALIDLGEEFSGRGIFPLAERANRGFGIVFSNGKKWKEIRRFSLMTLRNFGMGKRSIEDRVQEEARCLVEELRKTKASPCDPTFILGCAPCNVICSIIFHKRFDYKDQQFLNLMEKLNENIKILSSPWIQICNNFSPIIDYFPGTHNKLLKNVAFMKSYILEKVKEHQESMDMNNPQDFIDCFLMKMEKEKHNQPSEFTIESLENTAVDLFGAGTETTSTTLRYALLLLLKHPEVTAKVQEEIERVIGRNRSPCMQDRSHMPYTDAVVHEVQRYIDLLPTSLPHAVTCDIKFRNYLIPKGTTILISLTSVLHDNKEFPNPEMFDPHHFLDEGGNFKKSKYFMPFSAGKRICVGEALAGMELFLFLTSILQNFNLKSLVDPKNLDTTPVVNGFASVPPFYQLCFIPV

`COCCOc1ccc(-c2cnc(COc3ncccc3C(N)=O)nc2)c(Cl)c1`: in series [1], the MIC was 0.47 µM (≈ 0.195 µg/mL). In series [2], the MCC at 24 h was above 250 µM.
`CNS(=O)(=O)c1cccnc1OCc1ccc(-c2ccc(OCCOC)cc2C)cn1` had an MIC in [1] of 50 µM (≈ 22.2 µg/mL). Moreover, the MCC at 24 h in [2] is above 50 µM.
For `Cc1cc(OC[C@@H]2CCCO2)ccc1-c1ccc(COc2ncccc2C(N)=O)nc1`, in that order: 1.2 µM (≈ 0.503 µg/mL) and above 50 µM.
`COCCOc1ccc(-c2ccc(COc3nccc(OC)c3C(N)=O)nc2)c(C)c1` showed an MIC in series [1] of 6.2 µM (≈ 2.63 µg/mL). Further, the MCC at 24 h in series [2] was above 50 µM.
For the compound `Cn1ccnc1-c1ccc(COc2ncccc2C(N)=O)cc1`, in [1], the minimum inhibitory concentration (MIC) is above 100 µM. Also, the MCC at 24 h in series [2] is above 50 µM.
On to `COc1ccc(-c2ccc(COc3ncccc3C(N)=O)nc2)c(C(F)(F)F)c1`, for which the MIC in [1] was determined as 39.7 µM (≈ 16 µg/mL).
For the compound `CC(C)OCCOc1ccc(-c2cnc(COc3ncccc3C(N)=O)nc2)c(Cl)c1`, the MIC80 against Streptococcus pneumoniae, in the series on Pseudomonas aeruginosa [3], in the series with Klebsiella pneumoniae, against Streptococcus pyogenes, against Candida albicans and with Escherichia coli [18] was above 60 µM each time. For the same compound, the MIC80 with Escherichia coli [19], against Haemophilus influenzae [20], with Haemophilus influenzae [21] and against Staphylococcus aureus was above 60 µM each time. Further, the logD in [4] was found to be 2.8. The compound further registered a half-inhibitory concentration (IC50) against Cytochrome P450 2C9 of 19 µM. For the same compound, the result in [5], in series [6], in series [7], in series [8], in [9] and in [10] was Active. Also, the result in series [11], in series [12], in series [13], in series [14] and in series [15] was Active. Moreover, the selectivity ratio in series [16] is above 2500. Moreover, the figures for the MIC (against Pseudomonas aeruginosa [17]; in series [1]) were above 60 µM and 0.12 µM (≈ 0.0531 µg/mL), respectively. The MCC at 24 h in [2] was above 250 µM.
`COCCOc1ccc(-c2ccc(COc3ncccc3C(N)=O)nc2)c(C)c1` displayed a logD in [4] of 2.8. The same compound returned a fraction unbound in series [22] of 0.042. Moreover, the “inhibition (INH)” value against Cytochrome P450 1A2, at Cytochrome P450 3A4 and against Cytochrome P450 2D6 was “Not Active” each time. The result in [5], in series [6], in series [7], in [8], in series [9] and in series [10] was Active. Also, the outcome in [11], in series [12], in [13], in [14] and in series [15] was Active. The compound further yielded an MIC in [1] of 0.6 µM (≈ 0.236 µg/mL). For the same compound, the MCC at 24 h in series [2] was above 50 µM.
On to `Cc1cc(OCCN2CCOCC2)ccc1-c1ccc(COc2ncccc2C(N)=O)nc1`, for which, in series [1], the MIC was 8.9 µM (≈ 3.99 µg/mL). The MCC at 24 h in series [2] was above 50 µM.
As to `NC(=O)c1cccnc1OCc1ccc(-c2ccc(OCC3CCCO3)cc2Cl)cn1` (stereo not drawn), the MIC80 in the series on Streptococcus pneumoniae, with Pseudomonas aeruginosa [3], against Klebsiella pneumoniae, in the series on Streptococcus pyogenes, in the series with Candida albicans and against Escherichia coli [18] was above 60 µM in each case. Besides, the MIC80 in the series on Escherichia coli [19], against Haemophilus influenzae [20], against Haemophilus influenzae [21] and in the series on Staphylococcus aureus was above 60 µM each time. Moreover, the log distribution coefficient (logD) in series [4] was 2.8. In addition, the MIC was above 60 µM in the series on Pseudomonas aeruginosa [17] and 1.1 µM (≈ 0.484 µg/mL) in series [1]. Moreover, the MCC at 24 h in series [2] was above 50 µM.
Compound `CNC(=O)c1cccnc1OCc1ccc(-c2ccc(OCCOC)cc2C)cn1` gave an MIC in series [1] of 1.2 µM (≈ 0.489 µg/mL). The MCC at 24 h in series [2] was above 50 µM.
`COCCOc1ccc(-c2ccc(COc3ncccc3C(=O)NC3CCN(C)CC3)nc2)c(C)c1` displayed an MIC in [1] of 8.1 µM (≈ 3.97 µg/mL). Also, in series [2], the MCC at 24 h is above 50 µM.
The compound `COCCOc1ccc(-c2ccc(COc3nccnc3C(N)=O)nc2)c(C)c1` came in with an MIC in [1] of 40.5 µM (≈ 16 µg/mL). Besides, in series [2], the MCC at 24 h is above 50 µM.
